Data reported in publication PMC9145483, “Substituted Purines as High-Affinity Histamine H3 Receptor Ligands” (Pharmaceuticals, 2022).
Read-outs that look alike come from different tables or passages of the source.

How the values were obtained:
H3R = molecular target: H3R; parameters: method as in PMID 30025902, PMID 31176569; settings: H3R affinity of previous ligands; cited from earlier work
HEK-293 cell line = experiment: MTT cytotoxicity assay, HEK-293; type: cell-based; settings: HEK-293, MTT, 48 h, 0.1 to 100 μM
Protocol: (§1) The potential general nephrotoxic, neurotoxic and hepatotoxic effects of selected H3R ligands 3d and 3h were investigated to determine their influence on the viability of normal HEK-293, neuroblastoma SH-SY5Y and hepatoma HepG2 cell lines by a colorimetric MTT reduction assay (Table 2).
(§2) Cultures of HEPG2 (ATCC-HB-8065 TM), HEK293 (ATCC CRL-1573 TM) and SHSY-5Y (ATCC CRL-2266 TM) cell lines were used as experimental models. Cells were maintained in a DMEM culture medium supplemented with 10% Foetal Bovine Serum (FBS), in an incubator at 37 °C and a humidified atmosphere with 5% CO2. Cells were seeded on culture plates, were allowed to grow for 24 h and then were treated with the synthesized compounds for 48 h with 100, 10, 1 and 0.1 µM concentrations. Negative cell death control, corresponding to untreated cells, and positive cell death control, corresponding to cells treated with 10% SDS, were maintained.
(§3) In a colorimetric MTT reduction assay, sterile 96-well culture plates were used. An amount of 2000–2500 cells per well were seeded. Upon completion of treatment, the culture medium was vacuum aspirated and washed with 1x PBS, and then 100 μL of 0.5 mg/mL MTT solution was added for a period of 4 h at 37 °C for formazan crystal formation. […] The absorbance of each well was measured on the Synergy HTX microplate reader at 570 nm wavelength.

[1] = MTT cytotoxicity assay, HEK-293; type: cell-based; settings: human, HEK-293 cells, HEK-293, MTT, 0.1 to 100 μM
Protocol: as §1, §2, §3

[2] = test system: neuroblastoma SH-SY5Y cell line; experiment: MTT cytotoxicity assay, SH-SY5Y; type: cell-based; settings: 48 h, 0.1 to 100 μM
Protocol: as §1, §2, §3

[3] = MTT cytotoxicity assay, SH-SY5Y; type: cell-based; settings: human, SH-SY5Y neuroblastoma cells, 0.1 to 100 μM
Protocol: as §1, §2, §3

human histamine H3R = molecular target: T1, human histamine H3R (Homo sapiens, UniProt Q9Y5N1); experiment: Human histamine H3 radioligand displacement ([3H]Nα-methylhistamine); type: binding
T1 construct: expressed in transfected cells; host or cells: HEK-293 cells, stably expressing; membrane preparations
Protocol: Radioligand displacement assays at the human histamine H3R were performed, as published previously [28]. […] At least three independent experiments of each compound in duplicate were conducted with 11 concentrations. Obtained data was analyzed with GraphPad Prism 7 (San Diego, CA, USA) using non-linear least squares fit and the equation “one site competition” (representative Figures given in the SI). Ki values were calculated according to the Cheng–Prusoff equation [29] and are reported as means with a 95% confidence interval. Statistical analyses were performed on the -logKi values and were converted to mean Ki values and a 95% confidence interval.

hepatoma HepG2 cell line = experiment: MTT cytotoxicity assay, HepG2; type: cell-based; settings: 48 h, 0.1 to 100 μM
Protocol: as §1, §2
(§4) In a colorimetric MTT reduction assay, sterile 96-well culture plates were used. An amount of 2000–2500 cells per well were seeded. Upon completion of treatment, the culture medium was vacuum aspirated and washed with 1x PBS, and then 100 μL of 0.5 mg/mL MTT solution was added for a period of 4 h at 37 °C for formazan crystal formation. At the end of the 4 h, 100 μL of 10% SDS in HCl was added and kept overnight in an incubator at 37 °C to dissolve the formed crystals. The absorbance of each well was measured on the Synergy HTX microplate reader at 570 nm wavelength.

[4] = MTT cytotoxicity assay, HepG2; type: cell-based; settings: human, HepG2 hepatoma cells, 0.1 to 100 μM
Protocol: as §1, §2, §4

[5] = [3H]Nα-methylhistamine 2 nM, HEK-293 membranes stably expressing human H3R, mean [95% CI], at least three experiments in duplicate, read-out: Ki (nM) [95% CI nM]
[6] = restated in Table 3, read-out: Biological Activity Ki

T1 sequence (Q9Y5N1 whole entry): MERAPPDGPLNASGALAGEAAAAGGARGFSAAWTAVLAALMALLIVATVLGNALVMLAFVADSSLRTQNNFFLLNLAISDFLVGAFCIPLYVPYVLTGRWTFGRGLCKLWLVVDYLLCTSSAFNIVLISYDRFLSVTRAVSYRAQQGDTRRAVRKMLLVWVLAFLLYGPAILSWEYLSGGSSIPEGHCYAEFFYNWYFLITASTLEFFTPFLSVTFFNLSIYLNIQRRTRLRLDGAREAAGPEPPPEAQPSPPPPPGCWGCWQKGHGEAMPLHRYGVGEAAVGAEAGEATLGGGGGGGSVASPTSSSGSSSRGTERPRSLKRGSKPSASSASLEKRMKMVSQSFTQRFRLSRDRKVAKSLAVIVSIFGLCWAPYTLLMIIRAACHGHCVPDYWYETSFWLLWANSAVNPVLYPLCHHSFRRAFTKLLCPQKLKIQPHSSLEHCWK

Structure (SMILES) | Ki (human histamine H3R; [5]) [nM] | Ki (human histamine H3R; [6]) [nM] | further results
Clc1nc(N2CCC(N3CCCCC3)CC2)c2ccn(Cc3c(Cl)cccc3Cl)c2n1 [III] |  |  | Ki (H3R): 6 nM
Clc1nc(N2CCC(N3CCCCC3)CC2)c2ncn(Cc3c(Cl)cccc3Cl)c2n1 [Compound 3h, 6-([1,4’-Bipiperidin]-1’-yl)-2-chloro-9-(2,6-dichlorobenzyl)-9H-purine] | 5.51 | 5.5 | IC50 (HEK-293 cell line): 54.3 ± 3.54 µM; IC50 at 48 h [1]: > 30 µM; IC50 [2]: 32.4 ± 4.75 µM; IC50 at 48 h [3]: > 30 µM; IC50 (hepatoma HepG2 cell line): 33.8 ± 4.29 µM; IC50 at 48 h [4]: > 30 µM
Clc1ccc(Cn2cnc3c(N4CCC(N5CCCCC5)CC4)nc(Cl)nc32)cc1 [Compound 3f, 6-([1,4’-Bipiperidin]-1’-yl)-2-chloro-9-(4-chlorobenzyl)-9H-purine] | 44.6 | 44.6 | 
CNCCc1cnc[nH]1 [[^3H]N^α-methylhistamine, reference compound] |  |  | Kd (human histamine H3R; radioligand used at 2 nM at human H3R): 3.08 nM
Clc1nc(N2CCC(N3CCCCC3)CC2)c2ccn(Cc3ccc4ccccc4c3)c2n1 [II] |  |  | Ki (H3R): 126 nM
N#Cc1ccc(Cn2cnc3c(N4CCC(N5CCCCC5)CC4)ncnc32)cc1 [Compound 3c, 4-((6-([1,4’-Bipiperidin]-1’-yl)-9H-purin-9-yl)methyl)benzonitrile] | 28.8 | 28.8 | 
Fc1ccc(Cn2cnc3c(N4CCC(N5CCCCC5)CC4)ncnc32)cc1 [Compound 3a, 6-([1,4’-Bipiperidin]-1’-yl)-9-(4-fluorobenzyl)-9H-purine] | 105 | 105 | 
Clc1ccc(Cn2cnc3c(N4CCC(N5CCCCC5)CC4)ncnc32)cc1 [Compound 3b, 6-([1,4’-Bipiperidin]-1’-yl)-9-(4-chlorobenzyl)-9H-purine] | 39.4 | 39.4 | 
N#Cc1ccc(Cn2cnc3c(N4CCC(N5CCCCC5)CC4)nc(Cl)nc32)cc1 [Compound 3g, 4-((6-([1,4’-Bipiperidin]-1’-yl)-2-chloro-9H-purin-9-yl)methyl)benzonitrile] | 77.8 | 77.8 | 
Clc1cccc(Cl)c1Cn1cnc2c(N3CCC(N4CCCCC4)CC3)ncnc21 [Compound 3d, 6-([1,4’-Bipiperidin]-1’-yl)-9-(2,6-dichlorobenzyl)-9H-purine] | 2.91 |  | Ki (human histamine H3R; Table 3, read-out: Biological Activity −logKi (converted)): 2.88 nM; IC50 (hepatoma HepG2 cell line): 57.6 ± 12 µM; IC50 at 48 h [4]: > 30 µM
Fc1ccc(Cn2cnc3c(N4CCC(N5CCCCC5)CC4)nc(Cl)nc32)cc1 [Compound 3e, 6-([1,4’-Bipiperidin]-1’-yl)-2-chloro-9-(4-fluorobenzyl)-9H-purine] | 94.6 |  | 
